PMC10877577 (ACS Chemical Biology, 2024)
Entries after “also recorded” stand apart in the source; their conditions may differ. Like-named read-outs stand apart in the source and are kept apart here.

Legend:
aMinoC1 sdAb = assay: ELISA of CX7C-muIgG2a-Fc peptide fusions on aMinoC1 with or without minocycline; assay type: binding, alpaca; settings: 1 μM minocycline
[1] = system: MinoCAR-transduced PBMC against SupT1-EGFR+ target cells; assay type: cell-based; settings: compared to 0 μM minocycline
Protocol: Transduced CAR T cells were determined by staining for the transduction marker RQR8 and normalized by the addition of nontransduced T cells. Effector cells were cocultured with 5.0 × 10^4 number of target cells (SupT1-NT, SupT1-EGFR+, SKOV3-mKate) to achieve the desired effector cell to target ratio. […] Cocultures were incubated for 24–72 h at 37 °C and 5% CO2. After incubation, plates were centrifuged at 400g for 5 min, and the supernatant containing secreted cytokines was collected for cytokine analysis. Cells were stained with anti-hCD34-APC and anti-CD3-PeCy7 to differentiate effector T cells and target cells. Cells were washed with 300 μL o PBS and stained with SYTOX Blue Dead Cell Stain dye. The percentage of target cell survival was measured relative to the number of live target cells cocultured with nonspecific CAR T cells or nontransduced PBMCs.

[2] = system: MinoCAR-transduced PBMC against SupT1-EGFR+ target cells; assay: Cytokine release of MinoCAR PBMCs; assay type: cell-based, human; settings: minocycline supplementation, 24 h, 1:2 E/T
Protocol: Transduced CAR T cells were determined by staining for the transduction marker RQR8 and normalized by the addition of nontransduced T cells. Effector cells were cocultured with 5.0 × 10^4 number of target cells (SupT1-NT, SupT1-EGFR+, SKOV3-mKate) to achieve the desired effector cell to target ratio. Where appropriate, minocycline was supplemented as a part of the culture conditions. Cocultures were incubated for 24–72 h at 37 °C and 5% CO2. After incubation, plates were centrifuged at 400g for 5 min, and the supernatant containing secreted cytokines was collected for cytokine analysis. Cells were stained with anti-hCD34-APC and anti-CD3-PeCy7 to differentiate effector T cells and target cells. Cells were washed with 300 μL o PBS and stained with SYTOX Blue Dead Cell Stain dye. The percentage of target cell survival was measured relative to the number of live target cells cocultured with nonspecific CAR T cells or nontransduced PBMCs.
IFN-γ, IL2, and IL12 secretion was measured by collecting the supernatant from the respective cell-based assay and frozen at −20 °C prior to analysis by ELISA. IFN-γ, IL2, and IL12 ELISAs were carried out using the Human IFN-γ ELISA MAX Deluxe kit, Human IL2 ELISA MAX Deluxe kit, and Human IL12 (p70) ELISA MAX Deluxe kit in accordance with the manufacturer’s instructions (BioLegend).

Nalm6 EGFR+ tumor = assay: Xenograft model with NALM6, BLI readout; assay type: in vivo, NSG mice; settings: minocycline hydrochloride 0.4 mg i.p. every 2–3 days; day 7 to 13 post CAR-T
Protocol: All animal studies were carried out in accordance with a UK Home Office-approved project license and were approved by the UCL Biological Services Ethical Review Committee. NSG mice (female, aged 6–10 weeks) were acquired from Charles River Laboratories and raised under pathogen-free conditions. On day 4, 0.5 × 10^6 Nalm6 cells engineered to express EGFR and HA-luciferase were injected intravenously into NSG mice. Tumor engraftment was assessed through bioluminescence imaging, employing the IVIS Spectrum system (PerkinElmer) following intraperitoneal injection of 2 mg D-luciferin. Photon emission from EGFR^+ NALM6-FLuc cells, expressed in photon per second per cm^2 per steradian, was quantified using Living Image software (PerkinElmer). On day 0, mice were randomly assigned to different cohorts prior to intravenous injection of 1 × 10^6 CAR T cells. The experiment was conducted without blinding; however, the use of bioluminescence imaging provides an objective assessment of tumor growth in this model. […] Intraperitoneal injection of 100 μL (0.4 mg) was administered every 2–3 days.

[3] = system: SupT1 GWARA-CD8stk-CD28TM and SupT1 aMinoC1-CD8stk-CD28TM cells; assay: Cell–cell binding assay (aggregate formation); assay type: cell-based, human; settings: 10 μM minocycline, 24 h time course
Protocol: SupT1 cells were transduced to express GWARA-CD8a spacer-CD28TM-2A-mCherry and aMinoC1 sdAb-CD8 spacer-CD28TM-2A-eGFP. 0.5 × 10^4 cells were cocultured in RPMI (RPMI-1640) supplemented with 10% fetal bovine serum (FBS) and 2 mM GlutaMAX. […] Images were captured using an IncuCyte real-time imager. Time-course images were analyzed using ImageJ (NIH v1.53t) using an image analyzer (20 px^2-infinite size, 0.0–1.0 circularity).

SMILES: CN(C)c1ccc(O)c2c1C[C@H]1C[C@H]3[C@H](N(C)C)C(O)=C(C(N)=O)C(=O)[C@@]3(O)C(O)=C1C2=O [minocycline]
- ELISA detection of peptide-Fc on aMinoC1 in presence of minocycline (aMinoC1 sdAb): out-competed peptide-Fc conjugates
- increase in target cell survival ([1]; 24 h): 2.5 fold
- increase in target cell survival ([1]; 72 h): 35 fold
- reduction (minus) of IFN-γ secretion [2]: 2.7 fold
- reduction (minus) of IL2 secretion [2]: 1.9 fold
- effect of minocycline on MinoCAR efficacy (BLI) (Nalm6 EGFR+ tumor): Significant inhibition of MinoCAR; also recorded: significantly reduced MinoCAR efficacy
- cell aggregate formation [3]: random distribution of cells without a clear spatial organization
